One assay has as its target HPK1 (h) (Homo sapiens (Human), UniProt Q92918). Description: Inhibition against kinase activity of HPK1 (33P-ATP filter assay). It is filed as biochemical. The protocol: Inhibition against kinase activity of HPK1 was measured as follows. Recombinant human HPK1 protein was mixed with the compounds in a reaction solution (8 mM MOPS, pH 7.0, 0.2 mM EDTA, 0.33 mg/mL myelin basic protein, 10 mM magnesium acetate, and 15 μM [gamma-33P-ATP]). The mixture was incubated at room temperature for 40 minutes. The reaction was terminated by adding phosphoric acid at a final concentration of 0.5%. A 10 μL aliquot of the reaction solution was spotted onto a P30 filter, washed four times in 0.425% phosphoric acid solution for 4 minutes each, and washed once with methanol. The filters were dried, and HPK1 activity was measured via scintillation counting. The HPK1 activity observed in the control group free of the compounds was set as 100%, and the inhibition by the compounds was expressed relative to this control value. To calculate the IC50 value, the compounds were diluted in 9 concentrations, starting from a maximum of 1 μM in a threefold serial dilution. The IC50 was defined as the concentration at which 50% inhibition was observed.

The next assay deals with MLK3 (h) (Homo sapiens, UniProt Q16584). As to the kind of experiment: Inhibition against kinase activity of MLK3 (33P-ATP filter assay). It is filed as biochemical. On the procedure:
The kinase inhibition activity against MLK3 was measured as follows. Recombinant human […] protein was mixed with the compounds in a reaction solution (8 mM MOPS, pH 7.0, 0.2 mM EDTA, 0.33 mg/mL myelin basic protein, 5 mM DTT, 10 mM magnesium acetate, and 45 μM [gamma-33P-ATP]). The mixture was incubated at room temperature for 40 minutes. The reaction was terminated by adding phosphoric acid at a final concentration of 0.5%. A 10 μL aliquot of the reaction solution was then spotted onto a P30 filter, which was washed four times in 0.425% phosphoric acid solution for 4 minutes each and then washed once in methanol. The filters were dried, and MLK3 activity was measured via scintillation counting. The MLK3 activity observed in the control group free of the compounds was set as 100%, and the inhibition by the compounds was expressed relative to this control value. To calculate the IC50 value, the compounds were diluted in 9 concentrations, starting from a maximum of 1 μM in a threefold serial dilution. The IC50 was defined as the concentration at which 50% inhibition was observed.

For assay [1], the system named is cisplatin-resistant cell line A2780/cis. Description: Anticancer activity, CCK8 cell viability. The note with it: Homo sapiens, A2780cis, 72 h, A2780/cis cells, three days, FIG. 1. The format is cell-based. On the procedure: (§1) The anticancer activity of the MLK3 and HPK1 kinase inhibitor compounds was evaluated using the human ovarian cancer cell line A2780 and the cisplatin-resistant cell line A2780/cis. A2780 and A2780/cis cells were cultured at a density of 4000 cells per well in 96-well plates and stabilized for one day. The compounds 1 to 3 synthesized in Example 1 were serially diluted starting from a concentration of 10 μM and applied to the cells. The treated cells were incubated for three days, and cell viability was measured using CCK8 reagent, with the concentration at which 50% of the cancer cells died expressed as the GI50.

Assay [2] deals with human ovarian cancer cell line A2780. Description: Anticancer activity, CCK8 cell viability. The format is cell-based. To be noted: 72 h, A2780 cells, three days, FIG. 1. The protocol:
as §1

The next assay deals with A549. Description: Anticancer activity in other cancer cell lines. The format is cell-based. The note with it: Homo sapiens. The protocol:
as §1
(§2) Additionally, the anticancer activity of the compounds was also observed in other cancer cell lines (blood cancer, breast cancer, ovarian cancer, lung cancer, and brain cancer), as well as in drug-resistant cancer cell lines (doxorubicin-resistant blood cancer K562/ADM; and paclitaxel-resistant breast cancer MDA-MB-231/PTX).

The next assay deals with K562. As to the kind of experiment: Anticancer activity in other cancer cell lines. The format is cell-based. To be noted: Homo sapiens. On the procedure:
as §1, §2

The test system of another assay is MDA-MB-231. As to the kind of experiment: Anticancer activity in other cancer cell lines. It is filed as cell-based. The note with it: Homo sapiens. The protocol:
as §1, §2

The subject of a further assay is MDA-MB-453. Description: Anticancer activity in other cancer cell lines. The format is cell-based. To be noted: Homo sapiens. On the procedure:
as §1, §2

The next assay has as its system SH-SY5Y. As to the kind of experiment: Anticancer activity in other cancer cell lines. It is filed as cell-based. To be noted: Homo sapiens. The protocol: as §1, §2
The subject of another assay is SKOV3. Description: Anticancer activity in other cancer cell lines. The note with it: Homo sapiens, SK-OV-3. The format is cell-based. The protocol:
as §1, §2

The test system of a further assay is U937. As to the kind of experiment: Anticancer activity in other cancer cell lines. The format is cell-based. The note with it: Homo sapiens, U-937. The protocol:
as §1, §2

Assay [3] has as its system doxorubicin-resistant blood cancer K562/ADM. As to the kind of experiment: Anticancer activity in other cancer cell lines. It is filed as cell-based. The note with it: Homo sapiens. The protocol:
as §1, §2

Assay [4] has as its system paclitaxel-resistant breast cancer MDA-MB-231/PTX. As to the kind of experiment: Anticancer activity in other cancer cell lines. To be noted: Homo sapiens. It is filed as cell-based. On the procedure:
as §1, §2

Another assay deals with Human PBMC. As to the kind of experiment: IL-2 measurement for T cell activation enhancement. The format is cell-based. To be noted: CD3/CD28 Dynabeads, 6 days, FIG. 2. The protocol:
Human PBMC was seeded at a density of 2×10^5 cells per well in a 96-well plate. The cells were pretreated for one hour with serial dilutions of the compounds 1 to 3 synthesized in Example 1 starting from 3 μM. Afterward, CD3/CD28 Dynabeads were added to the cells at a 1:1 ratio and incubated for 6 days. After incubation, the cells and media were analyzed using the Sartorius human T cell activation cell and cytokine profiling kit with the iQue system. IL-2, a biomarker used to assess T cell activation, was measured. The results were calculated by setting the positive control group (treated with Dynabeads alone) as 100%.

Where [5] appears, read: HPK1 (h), 15 μM ATP, read-out: IC50.
Setting [6] is: approximate value, read-out: IC50 value for HPK1 inhibition.
Where [7] appears, read: MLK3 (h), 45 μM ATP, read-out: IC50.
The mark [8] stands for this setting: approximate value, read-out: IC50 value for MLK3 inhibition.

Structures are written as SMILES. Read-outs that look alike come from different tables or passages of the source.

Sequence of MLK3 (h) (Q16584 whole entry, looked up): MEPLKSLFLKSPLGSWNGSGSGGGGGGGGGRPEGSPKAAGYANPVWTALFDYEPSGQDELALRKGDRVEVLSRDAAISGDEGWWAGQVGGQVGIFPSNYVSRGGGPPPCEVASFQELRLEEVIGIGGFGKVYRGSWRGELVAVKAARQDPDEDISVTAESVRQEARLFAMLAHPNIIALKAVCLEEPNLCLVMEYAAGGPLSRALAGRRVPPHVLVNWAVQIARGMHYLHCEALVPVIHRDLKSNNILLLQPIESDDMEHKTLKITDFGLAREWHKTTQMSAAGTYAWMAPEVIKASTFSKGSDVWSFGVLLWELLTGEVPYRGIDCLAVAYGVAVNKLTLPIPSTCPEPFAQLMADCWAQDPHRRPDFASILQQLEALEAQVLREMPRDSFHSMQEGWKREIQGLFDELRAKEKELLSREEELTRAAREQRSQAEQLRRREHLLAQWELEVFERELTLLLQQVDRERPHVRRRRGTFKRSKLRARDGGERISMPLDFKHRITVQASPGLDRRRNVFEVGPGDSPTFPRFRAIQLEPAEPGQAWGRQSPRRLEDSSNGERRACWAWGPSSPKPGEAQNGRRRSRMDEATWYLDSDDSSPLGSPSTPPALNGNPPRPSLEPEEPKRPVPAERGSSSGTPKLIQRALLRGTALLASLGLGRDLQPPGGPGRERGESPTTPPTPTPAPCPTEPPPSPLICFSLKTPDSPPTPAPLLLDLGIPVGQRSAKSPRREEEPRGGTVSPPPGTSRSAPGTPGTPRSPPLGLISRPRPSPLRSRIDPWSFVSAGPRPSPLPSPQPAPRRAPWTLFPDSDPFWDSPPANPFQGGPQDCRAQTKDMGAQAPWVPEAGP
Sequence of HPK1 (h) (Q92918 whole entry): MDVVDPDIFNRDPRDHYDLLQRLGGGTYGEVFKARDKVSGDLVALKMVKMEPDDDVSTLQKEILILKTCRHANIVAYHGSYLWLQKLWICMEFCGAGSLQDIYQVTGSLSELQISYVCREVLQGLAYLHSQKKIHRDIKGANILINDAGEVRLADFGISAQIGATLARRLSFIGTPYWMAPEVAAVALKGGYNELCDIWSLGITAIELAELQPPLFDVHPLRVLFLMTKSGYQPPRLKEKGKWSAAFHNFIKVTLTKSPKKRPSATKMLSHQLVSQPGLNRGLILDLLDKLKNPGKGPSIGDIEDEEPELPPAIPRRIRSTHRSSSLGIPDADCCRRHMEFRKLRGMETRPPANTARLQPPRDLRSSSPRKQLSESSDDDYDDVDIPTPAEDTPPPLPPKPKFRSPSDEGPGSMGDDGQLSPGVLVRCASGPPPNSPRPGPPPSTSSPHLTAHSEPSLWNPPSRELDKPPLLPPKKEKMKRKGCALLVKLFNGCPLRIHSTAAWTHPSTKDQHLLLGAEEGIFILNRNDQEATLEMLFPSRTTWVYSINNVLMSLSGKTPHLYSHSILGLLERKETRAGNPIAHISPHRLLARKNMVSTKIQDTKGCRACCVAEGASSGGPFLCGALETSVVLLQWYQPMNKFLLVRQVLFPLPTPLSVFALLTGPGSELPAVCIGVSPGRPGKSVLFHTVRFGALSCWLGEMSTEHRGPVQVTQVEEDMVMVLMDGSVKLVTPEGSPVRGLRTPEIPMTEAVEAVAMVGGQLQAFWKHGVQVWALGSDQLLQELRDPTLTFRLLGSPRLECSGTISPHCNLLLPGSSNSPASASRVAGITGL

Regarding `CC1(C)OC(=O)c2ccc(Nc3nc(Nc4ccc5c(c4)CCNC5)ncc3Cl)cc21` [Compound 1, 5-((5-chloro-2-((1,2,3,4-tetrahydroisoquinolin-6-yl)amino)pyrimidin-4-yl)amino)-3,3-dimethylisobenzofuran-1(3H)-one], the IC50 (usually the concentration needed to halve the response being measured) on HPK1 (h) (setting [5]) is 1 to 100 nM; on HPK1 (h) (setting [6]) it was roughly 30 nM; at MLK3 (h) (setting [7]), 100 to 500 nM; at MLK3 (h) (setting [8]) it was roughly 140 nM. Besides, the GI50 (in general, the concentration that inhibits growth by half) in assay [1] was roughly 400 nM; in assay [2], roughly 200 nM; in the assay with A549, 1610 nM; in the assay with K562, 430 nM; in the assay with MDA-MB-231, 1250 nM; in the assay with MDA-MB-453 it was 1020 nM. Also, the GI50 with SH-SY5Y amounted to 390 nM; in the assay with SKOV3, 1700 nM; in the assay with U937 it was 290 nM; in assay [3] it was 3.74 µM; in assay [4], 990 nM. In addition, the “IL-2 levels (T cell activation)” value in the assay with Human PBMC is “increased IL-2 levels”.

In the case of `CC1(C)OC(=O)c2cc(Nc3nc(Nc4ccc5c(c4)CCNC5)ncc3Cl)ccc21` [Compound 2, 6-((5-chloro-2-((1,2,3,4-tetrahydroisoquinolin-6-yl)amino)pyrimidin-4-yl)amino)-3,3-dimethylisobenzofuran-1(3H)-one], the IC50 at HPK1 (h) (setting [5]) was 1 to 100 nM; at HPK1 (h) (setting [6]) it was roughly 50 nM; at MLK3 (h) (setting [7]), 100 to 500 nM; on MLK3 (h) (setting [8]), roughly 200 nM. For the same compound, the GI50 is roughly 310 nM in assay [1]; roughly 210 nM in assay [2]; 1150 nM in the assay on A549; 1070 nM with K562; 1030 nM in the assay with MDA-MB-231; 2900 nM in the assay with MDA-MB-453. Moreover, the concentration for 50% growth inhibition (GI50) with SH-SY5Y came to 280 nM; with SKOV3 it was 1500 nM; in the assay with U937 it was 440 nM; in [3] it was 2.28 µM; in assay [4], 770 nM. In addition, the “IL-2 levels (T cell activation)” value in the assay with Human PBMC is given as “increased IL-2 levels”.

With `CC1(C)OC(=O)c2ccc(Nc3ncc(Cl)c(Nc4ccc5c(c4)C(C)(C)OC5=O)n3)cc21` [Compound 3, 5,5′-((5-Chloropyrimidine-2,4-diyl)bis(azanediyl))bis(3,3-dimethylisobenzofuran-1(3H)-one)], the values for the IC50 at HPK1 (h) (setting [5]), at HPK1 (h) (setting [6]) and at MLK3 (h) (setting [7]) were 500 to 1000 nM, roughly 900 nM and greater than 1000 nM, respectively. The GI50 in the assay with A549 is greater than 10000 nM; in the assay with K562, greater than 10000 nM; in the assay with MDA-MB-231 it was 1350 nM; in the assay with MDA-MB-453 it was 1070 nM; in the assay with SH-SY5Y, 550 nM; with SKOV3 it was greater than 10000 nM. Besides, the concentration for 50% growth inhibition (GI50) was greater than 10000 nM in the assay on U937, greater than 10 µM in assay [3] and 1110 nM in assay [4].

Values taken from patent publication US20260015340A1, “COMPOUND INCLUDING 2,4-DIAMINOPYRIDINE, PREPARATION METHOD THEREFOR, AND PHARMACEUTICAL COMPOSITION CONTAINING SAME AS ACTIVE INGREDIENT FOR PREVENTION OR TREATMENT OF CANCER” (KOREA RESEARCH INSTITUTE OF CHEMICAL TECHNOLOGY, priority 2022, published 2026).
